Source: patent US6294580A, “Substituted 4-hydroxy-phenylalcanoic acid derivatives with agonist activity to PPAR-gamma” (Glaxo Wellcome Inc., priority 1996, dated 2001)
pEC50, pKi: −log10 of the molar value. Counter-ions that a name gives are not always drawn. Like-named read-outs stand apart in the source and are kept apart here.

Columns and labels:
PPARg = experiment: PPARgamma Transient Cotransfection Assay; type: cell-based; details: CAT reporter; for pEC50: read-out: PPARg EC50
hPPARgamma = target: T1, hPPARgamma (Homo sapiens, UniProt P37231); experiment: hPPARgamma Ligand Binding Assay; details: competition with [3H]-BRL 49,653, room temperature 2 hrs
T1 construct: 10x-histidine tag (N); made in house; host or cells: E. coli
T1 sequence (P37231 195-475 isoform P37231-2): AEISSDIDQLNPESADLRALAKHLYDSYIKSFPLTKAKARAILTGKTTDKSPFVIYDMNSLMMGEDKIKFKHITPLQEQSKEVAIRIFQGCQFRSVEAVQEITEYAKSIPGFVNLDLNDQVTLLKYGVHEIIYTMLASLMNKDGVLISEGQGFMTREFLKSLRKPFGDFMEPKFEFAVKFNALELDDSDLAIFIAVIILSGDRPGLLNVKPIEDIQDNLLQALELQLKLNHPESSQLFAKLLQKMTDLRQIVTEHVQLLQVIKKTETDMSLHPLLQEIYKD
Procedure: 2. hPPARgamma Ligand Binding Assay: The PPAR-gamma ligand binding domain (amino acids 195-475) was expressed with an N-terminal 10×-histidinetag in E. coli cells. The cells were lysed and receptor was purified by means of the epitope tag. The stock solution of protein was diluted to 200 nM in assay buffer (50 mM Tris, 50 mM KCl, pH 8 20 mM CHAPS, 2 mM EDTA 10 mM DTT (Fresh)) just before use.
Test compounds were prepared as 6 mM stock solutions in DMSO. […] The right-most column of wells was used for controls. […] Plates were incubated at room temperature for 2 hrs, and then cooled on ice for 30 minutes. 50 uL samples from each well of a single test plate were simultaneously loaded onto an equilibrated AGTC 96 well gel filtration block (Advanced Genetics Technology Corp.) using a Zymak Rapidplate automated pipettor. The block was placed on top of a clean microtiter plate and centrifuged @1,100×g for 4 min. 200 uL of scintillation fluid was added to each well, the plates were sealed and allowed to equilibrate for at least 4 hours before counting in a Wallac 1250 Microbeta counter.
Ki's were determined from a nonlinear least squares fit of the data to a simple competitive binding model.

SMILES | pEC50 (PPARg) | pKi (hPPARgamma; PPARg Ki) | pKi (hPPARgamma; read-out: PPARg Ki) | PPARg Fold. Act. (PPARg)
Cc1ccc(NC(Cc2ccc(OCCN(C)c3nc4ccccc4o3)cc2)C(=O)O)c(C(=O)c2ccccc2)c1 (stereo not drawn) [Example 19, 3-{4-[2-(benzoxazol-2-yl-methyl-amino)-ethoxy]-phenyl}-2-(2-benzoyl-4-methyl-phenylamino)-propionic acid] | 7.19 | 6.73 |  | 
COC(=O)c1ccccc1N[C@@H](Cc1ccc(OCCSc2ccc(Cl)cn2)cc1)C(=O)O [Example 70] | 6.70 |  | 6.60 | 
Cc1nnsc1-c1nc(CCOc2ccc(C[C@H](Nc3ccccc3C(=O)c3ccccc3)C(=O)O)cc2)c(C)s1 [Example 41, 2(S)-(2-benzoyl-phenylamino)-3-(4-{2-[5-methyl-2-(4-methyl[1,2,3]thiadiazol-5-yl)-thiazol-4-yl]ethoxy}-phenyl)-propionic acid] | 8.30 | 7.15 |  | 
COC(=O)c1ccccc1N[C@@H](Cc1ccc(OCCc2ccc(Cl)cc2)cc1)C(=O)O [Example 106, 2(S)-(1-carboxy-2-{4-[2-(4-chloro-phenyl)-ethoxy]-phenyl}-ethylamino)-benzoic acid methyl ester] | 6.52 | 6.85 |  | 
CC(=CC(=O)c1ccccc1)N[C@@H](Cc1ccc(OCCN(C)c2nc3ccccc3o2)cc1)C(=O)O [Example 17, 3-{4-[2-(Benzoxazol-2yl-methyl-amino)-ethoxy]-phenyl}-2(S)-(1-methyl-3-oxo-3-phenyl-propenylamino)-propionic acid dicyclohexylamine salt] | 9.00 | 7.10 |  | 
COC(=O)[C@H](Cc1ccc(OCc2ccccc2)cc1)NC(=O)c1coc2ccccc2c1=O [Example 10, 3-(4-Benzyloxy-phenyl)-2(S)-[(4-oxo-4H-chromene-3-carbonyl)-amino]-propionic acid methyl ester] | 6.77 | 6.52 |  | 
COC(=O)c1ccccc1N[C@@H](Cc1ccc(OCCc2nc(-c3ccccc3)sc2C)cc1)C(=O)O [Example 45, 2-(1-Carboxy-2-{4-[2-(5-methyl-2-phenyl-thiazol-4-yl)-ethoxy]-phenyl}-ethylamino)-benzoic acid methyl ester] | 9.00 | 7.52 |  | 
COc1ccccc1C(=O)c1ccccc1NC(Cc1ccc(OCCN(C)c2nc3ccccc3o2)cc1)C(=O)O (stereo not drawn) [Example 79] | 7.52 | 7.30 |  | 
O=C(c1ccccc1)c1ccccc1N[C@@H](Cc1ccc(OC[C@@H]2CCCN2c2ccccn2)cc1)C(=O)O [Example 61, 2S-(2-benzoyl-phenylamino)-3-[4-(1-pyridin-2-yl-pyrrolidin-2S-yl-methoxy)-phenyl]-propionic acid] | 7.82 | 8.00 |  | 
Cc1oc(-c2ccccc2)nc1CCOc1ccc(C[C@H](Nc2ccccc2C(=O)c2cccnc2)C(=O)O)cc1 [Example 58, 3-{4-[2-(5-Methyl-2-phenyl-oxazol-4-yl)-ethoxy]-phenyl}-2(S)-[2-(pyridine-3-carbonyl)-phenylamino]-propionic acid] | 9.00 | 7.52 |  | 
CCOC(=O)C(Cc1ccc(OCCN(C)c2ccccn2)cc1)Nc1ccccc1C(=O)c1ccccc1 (stereo not drawn) [Example 13, 2-(2-Benzoyl-phenylamino)-3-{4-[2-(methyl-pyridin-2-yl-amino)-ethoxy]-phenyl}-propionic acid ethyl ester] | 7.22 | 5.89 |  | 
COc1ccc(C(=O)c2ccccc2NC(Cc2ccc(OCCN(C)c3nc4ccccc4o3)cc2)C(=O)O)cc1 (stereo not drawn) [Example 110, 3-{4-[2-(Benzoxazol-2-yl-methylamino)-ethoxy]-phenyl}-2-(2-(4-methoxy-benzoyl)-phenylamino)-propionic acid] | 7.19 | 7.30 |  | 
Cc1ccc(C(=O)c2ccccc2NC(Cc2ccc(OCCN(C)c3nc4ccccc4o3)cc2)C(=O)O)cc1 (stereo not drawn) [Example 111, 3-{4-[2-(Benzoxazol-2-yl-methylamino)-ethoxy]-phenyl}-2-(2-(4-methyl-benzoyl)-phenylamino)-propionic acid] | 8.00 | 7.15 |  | 
O=C(c1ccccc1)c1ccccc1N[C@@H](Cc1ccc(OC[C@@H]2CSCN2c2nc3ccccc3o2)cc1)C(=O)O [Example 72, 3-[4-(3-Benzoxazol-2-yl-thiazolidin-4(R)-ylmethoxy)-phenyl]-2(S)-(2-benzoyl-phenylamino)-propionic acid] | 8.30 | 7.52 |  | 
COC(=O)c1ccccc1N[C@@H](Cc1ccc(OCCOc2ccc([N+](=O)[O-])cn2)cc1)C(=O)O [Example 69] | 7.00 |  | 6.54 | 
CN(CCOc1ccc(CC(Nc2ccsc2C(=O)c2ccccc2)C(=O)O)cc1)c1nc2ccccc2o1 (stereo not drawn) [Example 25] | 9.00 | 7.15 |  | 

SMILES | pEC50 (PPARg) | pKi (hPPARgamma; PPARg Ki) | pKi (hPPARgamma; read-out: PPARg Ki) | PPARg Fold. Act. (PPARg)
Cc1oc(-c2ccccc2)nc1CCOc1ccc(CC(Nc2ccccc2C(=O)c2cccc(CN)c2)C(=O)O)cc1 (stereo not drawn) [Example 86, 2-[2-(3-aminomethyl-benzoyl)-phenylamino]-3-{4-[2-(5-methyl-2-phenyl-oxazol-4-yl)-ethoxy]-phenyl}-propionic acid hydrochloride] | 7.52 | 6.19 |  | 
COC(=O)c1ccccc1N[C@@H](Cc1ccc(OCCSc2ccc(Cl)cc2)cc1)C(=O)O [Example 46, 2-(1-Carboxy-2-{4-[2-(4-clhorophenylsulfanyl)-ethoxy]-phenyl}-ethylamino)-benzoic acid methyl ester] | 6.05 | 6.12 |  | 
CN(CCOc1ccc(CC(Cc2ccccc2)C(=O)O)cc1)c1nc2ccccc2o1 (stereo not drawn) [Example 26, 3-{4-[2-(Benzoxazol-2-yl-methyl-amino)-ethoxy]-phenyl}-2-benzyl-propionic acid trifluoroacetate] | 6.17 | 5.72 |  | 
Cc1oc(-c2ccccc2)nc1CCOc1ccc(CC(Nc2ccccc2C(=O)C2CCCCC2)C(=O)O)cc1 (single isomer, unassigned) [Example 54, 2-(2-Cyclohexanecarbonyl-phenylamino)-3-{4-[2-(5-methyl-2-phenyl-oxazol-4-yl)-ethoxy]-phenyl}-propionic acid] | 6.60 | 5.52 |  | 
COC(=O)[C@H](Cc1ccc(OCc2ccccc2)cc1)NC(C)=CC(=O)c1ccccc1 [Example 2, 3-(4-Benzyloxy-phenyl)-2(S)-(1-methyl-3-oxo-3-phenyl-propenylamino)-propionic acid methyl ester] | 7.00 | 6.00 |  | 23
COC(=O)c1ccccc1N[C@@H](Cc1ccc(OCCc2nc(N3CCN(C)CC3)sc2C)cc1)C(=O)O [Example 105] | 7.46 |  | 6.85 | 
Cc1oc(-c2ccccc2)nc1CCOc1ccc(C[C@H](Nc2ccccc2C(=O)c2cc[n+]([O-])cc2)C(=O)O)cc1 [Example 57, 3-{4-[2-(5-methyl-2-phenyl-oxazol-4-yl)-ethoxy]-phenyl}-2(S)-[2-(pyridineN-oxide-4-carbonyl)-phenylamino]-propionic acid] | 6.82 | 5.90 |  | 
CN(CCOc1ccc(CC(Nc2ccccc2C(=O)c2cccs2)C(=O)O)cc1)c1nc2ccccc2o1 (stereo not drawn) [Example 74] | 7.26 | 6.10 |  | 
Cc1oc(-c2ccccc2)nc1CCOc1ccc(C[C@H](Nc2ccccc2C(=O)c2ccc[n+]([O-])c2)C(=O)O)cc1 [Example 59, 3-{4-[2-(5-methyl-2-phenyl-oxazol-4-yl)-ethoxy]-phenyl}-2(S)-[2-(pyridine-N-oxide-3-carbonyl)-phenylamino]-propionic acid] | 7.02 | 7.00 |  | 
O=C(c1ccccc1)c1sccc1NC(Cc1ccc(OCc2ccccc2)cc1)C(=O)O (stereo not drawn) [Example 9, 2-(2-Benzoyl-thiophen-3-yl-amino)-3-(4-benzyloxy-phenyl)-propionic acid] | 6.20 | 6.15 |  | 
COC(=O)C(Cc1ccc(OCc2ccccc2)cc1)Nc1ccccc1C(=O)OCc1ccccc1 (stereo not drawn) [Example 5] | 5.05 | < 5.52 |  | 10
Cc1oc(-c2ccccc2)nc1CCOc1ccc(C[C@H](Nc2ccccc2C(=O)NCCN)C(=O)O)cc1 [Example 89, 2-(S)-(1-carboxy-2-{4-{2-(5-methyl-2-phenyl-oxazol-4-yl)-ethoxy]-phenyl}-ethylamino)-benzoic acid 2-aminoethyl amide hydrochloride] | 7.22 | 5.52 |  | 
Cc1oc(-c2ccccc2)nc1CCOc1ccc(CC(Nc2ccccc2C(=O)c2ccc(CN(C)C)cc2)C(=O)O)cc1 (stereo not drawn) [Example 81, 2-[2-(4-dimethylaminomethyl-benzoyl)-phenylamino]-3-{4-[2-(5-methyl-2-phenyl-oxazol-4-yl)-ethoxy]-phenyl}-propionic acid hydrochloride] | 6.40 | 6.89 |  | 
COc1cccc(C(=O)c2ccccc2NC(Cc2ccc(OCCN(C)c3nc4ccccc4o3)cc2)C(=O)O)c1 (stereo not drawn) [Example 78] | 6.70 | 7.40 |  | 
CN(CCOc1ccc(CC(Cc2ccccc2Br)C(=O)O)cc1)c1nc2ccccc2o1 (stereo not drawn) [Example 27, 3-{4-[2-(Benzoxazol-2-yl-methyl-amino)-ethoxy]-phenyl}-2-(2-bromo-benzyl)-propionic acid trifluoroacetate] | 6.40 | 6.52 |  | 
CN(CCOc1ccc(CC(Nc2ccccc2C(=O)C2CCCCCC2)C(=O)O)cc1)c1nc2ccccc2o1 (stereo not drawn) [Example 49, 3-{4-[2-(Benzoxazol-2-yl-methyl-amino)-ethoxy]-phenyl}-2-(2-cycloheptanecarbonyl-phenylamino)-propionic acid] | 8.00 | 7.10 |  | 
